Data from patent US20060252830A1, “Method for the treatment of magnesium and potassium deficiencies” (priority 2005, published 2006).

Legend:
[1] = tested on: patients with atrial fibrillation; conditions: oral; two 6 month studies; cited from earlier work
[2] = Intracellular elemental concentrations in sublingual buccal smears (EXAtest, energy-dispersive X-ray analysis); type: in vivo, human; conditions: p=0.002; all patients below the normal reference range at baseline reached it
Experimental: A randomized, double-blind, placebo-controlled study was performed at Hartford Hospital. People taking dofetilide or sotalol therapy for at least 5 half-lives were eligible for inclusion. […] After enrollment, people who discontinued their sotalol or dofetilide or altered their dosage of these drugs were excluded as well. Thirty-four participants were enrolled in the study. Three were subsequently excluded because the antiarrhythmics they were using were discontinued or the dose of the antiarrhythmics changed during the study. Given the known baseline differences in QTc intervals among men and women, each gender was randomized separately using stratified allocation. […] All of the other baseline intracellular elements evaluated (phosphorus, chloride, calcium, potassium, and sodium) were within the reference range although the phosphorus was at the top of the range (average=16.7±2.8 mEq/IU with reference range of 14.2-17.0 mEq/IU).
Participants received three tablets of magnesium L-lactate (Mag-Tab SR®; Niche Pharmaceuticals; Roanoke, Tex.) or matching placebo twice daily (504 mg of elemental magnesium daily) for 48 hours (i.e. t=0, 12 h, 24 h, 36 h, and 48 h). A 12-lead electrocardiogram (ECG) was recorded at 25 mm/sec at rest prior to initiation of treatment (i.e. baseline) and at 3 and 51 hours after the first dose of magnesium (i.e. t=3 h and t=51 h) for each participant. […]

[3] = tested on: patients receiving sotalol or dofetilide; assay: Randomized, double-blind, placebo-controlled study: 12-lead ECG intervals in people taking dofetilide or sotalol; type: in vivo, human
Experimental: A randomized, double-blind, placebo-controlled study was performed at Hartford Hospital. People taking dofetilide or sotalol therapy for at least 5 half-lives were eligible for inclusion. […] After enrollment, people who discontinued their sotalol or dofetilide or altered their dosage of these drugs were excluded as well. Thirty-four participants were enrolled in the study. Three were subsequently excluded because the antiarrhythmics they were using were discontinued or the dose of the antiarrhythmics changed during the study. Given the known baseline differences in QTc intervals among men and women, each gender was randomized separately using stratified allocation. Patients completing the study (n=30) were well matched for baseline characteristics, which are reflected in Table 1. Intracellular concentrations of essential elements were available for 19 subjects. Overall 63.2% of patients (regardless of experimental group) had baseline intracellular magnesium concentrations below the normal reference range of 33.9-41.9 mEq/IU with an average level of 32.6±2.2 mEq/IU. All of the other baseline intracellular elements evaluated (phosphorus, chloride, calcium, potassium, and sodium) were within the reference range although the phosphorus was at the top of the range (average=16.7±2.8 mEq/IU with reference range of 14.2-17.0 mEq/IU).
Participants received three tablets of magnesium L-lactate (Mag-Tab SR®; Niche Pharmaceuticals; Roanoke, Tex.) or matching placebo twice daily (504 mg of elemental magnesium daily) for 48 hours (i.e. t=0, 12 h, 24 h, 36 h, and 48 h). A 12-lead electrocardiogram (ECG) was recorded at 25 mm/sec at rest prior to initiation of treatment (i.e. baseline) and at 3 and 51 hours after the first dose of magnesium (i.e. t=3 h and t=51 h) for each participant. A single blinded investigator read all ECGs using a precision ruler of 0.5 mm scale (Schlaedler-Quinzel, Inc. Parsippany, N.J.).
QT intervals were measured from the onset of the Q wave (or R/S wave if there was no Q wave) to the end of the T wave where it merges with the isoelectric baseline. The beginning and end of the QRS complex were determined by visual inspection, whereas the end of the T-wave was obtained by extrapolating the descending slope of the T-wave to the isoelectric baseline. When a U wave interrupts the down-sloping of the T-wave, the visible portion of the T wave was extrapolated to the T-P baseline to define the end of the T-wave. The R-R interval was measured from the peak of one R wave to the peak of an adjacent R wave. The QTc interval was corrected for heart rate using Bazett's formula [QTc=QT/(RR)^1/2].
Continuous data was expressed by a mean±SD. A p value less than 0.05 was considered statistically significant. The primary analysis was the intergroup comparisons of the change in QTc interval from baseline at 3 hours and 51 hours using Bazett's formula. Evaluations of the QRS, QT, and RR intervals were compared between groups at each time period as well. Mann-Whitney tests were used for all statistical analyses of continuous ECG data. Intracellular element intragroup comparisons were performed with a paired t-test. Chi^2 or Fischer's Exact tests were used for categorical comparisons. Statistical analysis was performed using SPSS version 5.

| SMILES | maintaining sinus rhythm [1] | change of intracellular magnesium concentrations after magnesium supplementation [2] | QT interval reduction ([3]; 3 hours) [ms] | reduction in the QTc interval from baseline ([3]; 3 hours, group receiving diuretics) [ms] | reduction in the QTc interval from baseline ([3]; 3 hours, no diuretic group) [ms] | reduction in the QTc interval from baseline ([3]; 51 hours, group receiving diuretics) [ms] | reduction in the QTc interval from baseline ([3]; 51 hours, no diuretic group) [ms] |
| --- | --- | --- | --- | --- | --- | --- | --- |
| [Mg+2].[OH-].[OH-] [magnesium hydroxide] | ineffective | – | – | – | – | – | – |
| C[C@H](O)C(=O)[O-].C[C@H](O)C(=O)[O-].O.O.[Mg+2] [Magnesium L-lactate, magnesium l-lactate dihydrate] | – | rose significantly | 15 | 51.1 ± 42 | 25.5 ± 27.9 | 24.7 ± 24.3 | 26.2 ± 27.4 |
